Reference: ChEMBL document CHEMBL1138817, “Synthesis and cytotoxic activity of 3-O-acyl/3-hydrazine /2-bromo/20,29-dibromo betulinic acid derivatives” (2004)
In brackets after ≈: the same amount, converted by molar mass.

Key:
Assay type in all cases: functional
Jurkat = assay: Cytotoxic activity against human JurkatE6.1 cell line was measured after 72 h using MTT assay; conditions: for EC50: Homo sapiens, Jurkat, 72 h, read-out: ED50 (the source's name)
A549 = assay: Cytotoxic activity against human A549 cell line was measured after 72 hr using MTT assay; conditions: A549, 72 h, read-out: ED50 (the source's name)
L132 = assay: Cytotoxic activity against human L132 cell line was measured after 72 hr using MTT assay; conditions: L132, 72 h, read-out: ED50 (the source's name)
PA-1 = assay: Cytotoxic activity against human PA-1 cell line was measured after 72 hr using MTT assay; conditions: for EC50: Homo sapiens, PA-1, 72 h, read-out: ED50 (the source's name)
DU-145 = assay: Cytotoxic activity against human DU145 cell line was measured after 72 hr using MTT assay; conditions: for EC50: Homo sapiens, DU-145, 72 h, read-out: ED50 (the source's name)
MOLT-4 = assay: Cytotoxic activity against human MOLT-4 cell line was measured after 72 hr using MTT assay; conditions: for EC50: Homo sapiens, MOLT-4, 72 h, read-out: ED50 (the source's name)
CCRF-CEM = assay: Cytotoxic activity against human CEM.CM3 cell line was measured after 72 hr using MTT assay; conditions: for EC50: Homo sapiens, CCRF-CEM, 72 h, read-out: ED50 (the source's name)
BRISTOL8 = assay: Cytotoxic activity against human BRISTOL8 cell line was measured after 72 hr using MTT assay; conditions: for EC50: Homo sapiens, BRISTOL8, 72 h, read-out: ED50 (the source's name)
U-937 = assay: Cytotoxic activity against human U937 cell line was measured after 72 hr using MTT assay; conditions: for EC50: Homo sapiens, U-937, 72 h, read-out: ED50 (the source's name)

| Compound | EC50 (Jurkat) [µg/mL] | EC50 (A549) [µg/mL] | EC50 (L132) [µg/mL] | EC50 (PA-1) [µg/mL] | EC50 (DU-145) [µg/mL] | EC50 (MOLT-4) [µg/mL] | EC50 (CCRF-CEM) [µg/mL] | EC50 (BRISTOL8) [µg/mL] | EC50 (U-937) [µg/mL] | ED50 (Jurkat) [µg/mL] | ED50 (PA-1) [µg/mL] | ED50 (DU-145) [µg/mL] | ED50 (MOLT-4) [µg/mL] | ED50 (CCRF-CEM) [µg/mL] | ED50 (BRISTOL8) [µg/mL] | ED50 (U-937) [µg/mL] |
| --- | --- | --- | --- | --- | --- | --- | --- | --- | --- | --- | --- | --- | --- | --- | --- | --- |
| CC(C)[C@@H]1CC[C@]2(C(=O)O)CC[C@]3(C)C(CCC4[C@@]5(C)CC/C(=N\Nc6ccccc6)C(C)(C)C5CC[C@]43C)C12 (some centres not stated) | 6.3 (≈ 11.5 µM) | > 10 | 7.4 (≈ 13.5 µM) | 0.4 (≈ 0.731 µM) | 0.6 (≈ 1.1 µM) | 1.4 (≈ 2.56 µM) | 2.9 (≈ 5.3 µM) | 3.7 (≈ 6.77 µM) | 2.2 (≈ 4.02 µM) |  |  |  |  |  |  |  |
| CC(C)[C@@H]1CC[C@]2(C(=O)O)CC[C@]3(C)C(CCC4[C@@]5(C)CC/C(=N\O)C(C)(C)C5CC[C@]43C)C12 (some centres not stated) | 1.8 (≈ 3.82 µM) | > 1.8 | 1.5 (≈ 3.18 µM) | 0.7 (≈ 1.48 µM) | 1.1 (≈ 2.33 µM) | 2.1 (≈ 4.45 µM) | 2.6 (≈ 5.51 µM) | 1.6 (≈ 3.39 µM) | 2.4 (≈ 5.09 µM) |  |  |  |  |  |  |  |
| C=C(C)[C@@H]1CC[C@]2(C(=O)O)CC[C@]3(C)C(CCC4[C@@]5(C)CC[C@H](OC(=O)C(C)C(=O)OC)C(C)(C)C5CC[C@]43C)C12 (some centres not stated) | 0.9 (≈ 1.58 µM) | > 10 | > 10 | 3.6 (≈ 6.31 µM) | 1.6 (≈ 2.8 µM) | 1.2 (≈ 2.1 µM) | 1.6 (≈ 2.8 µM) | 1.7 (≈ 2.98 µM) | 1.1 (≈ 1.93 µM) |  |  |  |  |  |  |  |
| C=C(C)[C@@H]1CC[C@]2(C(=O)O)CC[C@]3(C)C(CCC4[C@@]5(C)CC[C@H](OC(C)=O)C(C)(C)C5CC[C@]43C)C12 (some centres not stated) | 1.8 (≈ 3.61 µM) | > 10 | > 10 | 4.1 (≈ 8.22 µM) | 2.6 (≈ 5.21 µM) | 3.1 (≈ 6.22 µM) |  | 4.8 (≈ 9.62 µM) | 1.6 (≈ 3.21 µM) |  |  |  |  |  |  |  |
| C=C(C)[C@@H]1CC[C@]2(C(=O)OCC(=O)O)CC[C@]3(C)C(CCC4[C@@]5(C)CC[C@H](O)C(C)(C)C5CC[C@]43C)C12 (some centres not stated) | > 10 | > 10 | > 10 | 1.3 (≈ 2.53 µM) | > 10 | 3.1 (≈ 6.02 µM) | > 10 |  | > 10 |  |  |  |  |  |  |  |
| C=C(C)[C@@H]1CC[C@]2(C(=O)O)CC[C@]3(C)C(CCC4[C@@]5(C)CC[C@H](OC(=O)CC)C(C)(C)C5CC[C@]43C)C12 (some centres not stated) | 2.1 (≈ 4.1 µM) | > 10 | > 10 | 3.7 (≈ 7.22 µM) | 4.2 (≈ 8.19 µM) | 3.3 (≈ 6.44 µM) | 5.5 (≈ 10.7 µM) | 2.1 (≈ 4.1 µM) | 6.8 (≈ 13.3 µM) |  |  |  |  |  |  |  |
| CC(C)[C@@H]1CC[C@]2(C(=O)O)CC[C@]3(C)C(CCC4[C@@]5(C)CC(Br)C(=O)C(C)(C)C5CC[C@]43C)C12 (some centres not stated) | 0.7 (≈ 1.31 µM) | > 10 | > 10 | 0.5 (≈ 0.934 µM) | 3 (≈ 5.6 µM) | 0.4 (≈ 0.747 µM) | 0.3 (≈ 0.56 µM) | 2.9 (≈ 5.41 µM) | 1.3 (≈ 2.43 µM) |  |  |  |  |  |  |  |
| CC1(C)C(=O)C(Br)C[C@@]2(C)C1CC[C@]1(C)C2CCC2C3[C@H](C(C)(Br)CBr)CC[C@]3(C(=O)O)CC[C@]21C (some centres not stated) | 2.1 (≈ 3.03 µM) | > 10 | > 10 | 5.1 (≈ 7.36 µM) | 3.6 (≈ 5.19 µM) | 5.9 (≈ 8.51 µM) | 2.8 (≈ 4.04 µM) | 3.8 (≈ 5.48 µM) | 2.1 (≈ 3.03 µM) |  |  |  |  |  |  |  |
| C=C(C)[C@@H]1CC[C@]2(C(=O)O)CC[C@]3(C)C(CCC4[C@@]5(C)CC[C@H](OC(=O)C(C)(C)C)C(C)(C)C5CC[C@]43C)C12 (some centres not stated) | > 10 | > 10 | > 10 | 0.7 (≈ 1.29 µM) | 1 (≈ 1.85 µM) | 2.4 (≈ 4.44 µM) | > 10 | > 10 | > 10 |  |  |  |  |  |  |  |
| CC(=O)O[C@H]1C(Br)C[C@@]2(C)C(CC[C@]3(C)C2CCC2C4[C@H](C(C)(Br)CBr)CC[C@]4(C(=O)O)CC[C@]23C)C1(C)C (some centres not stated) | 6.9 (≈ 9.36 µM) | > 10 | > 10 | 2.4 (≈ 3.25 µM) | 2.5 (≈ 3.39 µM) | 2.8 (≈ 3.8 µM) | 2.7 (≈ 3.66 µM) | 1.4 (≈ 1.9 µM) | 0.3 (≈ 0.407 µM) |  |  |  |  |  |  |  |
| COC(=O)COC(=O)[C@]12CC[C@@H](C(C)C)C1C1CCC3[C@@]4(C)CC[C@H](O)C(C)(C)C4CC[C@@]3(C)[C@]1(C)CC2 (some centres not stated) | 5.5 (≈ 10.4 µM) | > 10 | > 10 | 0.5 (≈ 0.942 µM) | > 10 | 2.8 (≈ 5.28 µM) | 2.5 (≈ 4.71 µM) | 3.4 (≈ 6.41 µM) | > 10 |  |  |  |  |  |  |  |
| C=C(C)[C@@H]1CC[C@]2(C(=O)O)CC[C@]3(C)C(CCC4[C@@]5(C)CC/C(=N\Nc6ccccc6)C(C)(C)C5CC[C@]43C)C12 (some centres not stated) | 2.6 (≈ 4.77 µM) | > 10 | 4.3 (≈ 7.89 µM) | 5.3 (≈ 9.73 µM) | 2.4 (≈ 4.41 µM) | 3.4 (≈ 6.24 µM) | 3.1 (≈ 5.69 µM) | 3.4 (≈ 6.24 µM) | 2.4 (≈ 4.41 µM) |  |  |  |  |  |  |  |
| C=C(C)[C@@H]1CC[C@]2(C(=O)O)CC[C@]3(C)C(CCC4[C@@]5(C)CC/C(=N\OS(=O)(=O)c6ccc(C)cc6)C(C)(C)C5CC[C@]43C)C12 (some centres not stated) | 4.9 (≈ 7.85 µM) | > 10 | > 10 | 1.8 (≈ 2.89 µM) | 2.8 (≈ 4.49 µM) | 2.7 (≈ 4.33 µM) | 1.5 (≈ 2.4 µM) | 3.3 (≈ 5.29 µM) | 4.8 (≈ 7.69 µM) |  |  |  |  |  |  |  |
| C=C(C)[C@@H]1CC[C@]2(C(=O)OCC(=O)OC)CC[C@]3(C)C(CCC4[C@@]5(C)CCC(=N)C(C)(C)C5CC[C@]43C)C12 (some centres not stated) | 0.5 (≈ 0.951 µM) | > 10 | > 10 | 6.5 (≈ 12.4 µM) | 5.5 (≈ 10.5 µM) | 1.7 (≈ 3.23 µM) | 1.4 (≈ 2.66 µM) | 1.4 (≈ 2.66 µM) | 1.7 (≈ 3.23 µM) |  |  |  |  |  |  |  |
| COC(=O)C(C)C(=O)O[C@H]1CC[C@@]2(C)C(CC[C@]3(C)C2CCC2C4[C@H](C(C)C)CC[C@]4(C(=O)O)CC[C@]23C)C1(C)C (some centres not stated) | 3.8 (≈ 6.63 µM) | 2.1 (≈ 3.67 µM) | 7.7 (≈ 13.4 µM) | 1.3 (≈ 2.27 µM) | 1 (≈ 1.75 µM) | 2.8 (≈ 4.89 µM) | 3.1 (≈ 5.41 µM) | 2.1 (≈ 3.67 µM) | 4 (≈ 6.98 µM) |  |  |  |  |  |  |  |
| CC(=O)O[C@H]1CC[C@@]2(C)C(CC[C@]3(C)C2CCC2C4[C@H](C(C)C)CC[C@]4(C(=O)O)CC[C@]23C)C1(C)C (some centres not stated) | 1.6 (≈ 3.2 µM) | 2.3 (≈ 4.59 µM) | 2.9 (≈ 5.79 µM) | 0.8 (≈ 1.6 µM) | 0.9 (≈ 1.8 µM) | 1.1 (≈ 2.2 µM) | 1 (≈ 2 µM) | 3.4 (≈ 6.79 µM) | 1.8 (≈ 3.59 µM) |  |  |  |  |  |  |  |
| COC(=O)COC(=O)[C@]12CC[C@@H](C(C)(Br)CBr)C1C1CCC3[C@@]4(C)CC(Br)C(=O)C(C)(C)C4CC[C@@]3(C)[C@]1(C)CC2 (some centres not stated) | 1.1 (≈ 1.44 µM) | > 10 | > 10 | 2.5 (≈ 3.27 µM) | 4.5 (≈ 5.88 µM) | 1.3 (≈ 1.7 µM) | 1.2 (≈ 1.57 µM) | 1.9 (≈ 2.48 µM) | 0.7 (≈ 0.914 µM) |  |  |  |  |  |  |  |
| CC(Br)(CBr)[C@@H]1CC[C@]2(C(=O)O)CC[C@]3(C)C(CCC4[C@@]5(C)CC(Br)[C@H](O)C(C)(C)C5CC[C@]43C)C12 (some centres not stated) | > 10 | > 10 | > 10 | 6 (≈ 8.63 µM) | > 10 | 3.6 (≈ 5.18 µM) | 6.8 (≈ 9.78 µM) | 7 (≈ 10.1 µM) | > 10 |  |  |  |  |  |  |  |
| C=C(C)[C@@H]1CC[C@]2(C(=O)OCC(=O)OC)CC[C@]3(C)C(CCC4[C@@]5(C)CC[C@H](O)C(C)(C)C5CC[C@]43C)C12 (stereo in doubt; 4) |  |  |  |  |  |  |  |  |  | 3.1 (≈ 5.86 µM) | 3.1 (≈ 5.86 µM) | 1.9 (≈ 3.59 µM) | 2.9 (≈ 5.48 µM) | 5.9 (≈ 11.2 µM) | 7.4 (≈ 14 µM) | 5.4 (≈ 10.2 µM) |
